Source: patent publication EP0345251B1 (priority 1986, dated 1988)

How the values were obtained:
leukaemia L1210 = assay: Antitumour activity against leukaemia L1210 (survival); assay type: in vivo, BDF₁ mice; conditions: L1210, host BDF1; VCR 1.0 mg/kg ip days 1-3; in combination CRON 200 mg/kg ip days 1-3, same time as VCR; CMC-controls 8.0
Protocol: Antitumour effects. Male Swiss Schneider mice of 27g body weight were used for the sarcoma S180 experiments: female C₅₇Bl mice of 20g body weight were used for the B16 melanoma experiments; […]; and C₅₇Bl mice of 20g body weight were used for the Lewis lung experiments.
L1210. Spleens were removed from animals 7 days after inoculation of L1210 cells and these spleens were finely minced with 1:100 isotonic saline. 0.1 ml of this spleen and leukaemia L1210 cell suspension was then injected subcutaneously into the flank of each BDF₁.

[1] = Acute vincristine toxicity in chicks, with and without Cronassial; assay type: in vivo, 48 hour old SPF chicks; conditions: for SURVIVORS AT 24hrs / SURVIVORS AT 28hrs / SURVIVORS AT 52hrs: acute, SPF 48hr chick, in combination CRON 200 mg/kg at same time
Protocol: (§1) Toxicity acute and chronic. Male Swiss Schneider mice with a body weight of 25-30g were used for these experiments. Mice were usually kept in groups of not more than 8 in standard cages. Food and water were supplied ad libidum. The animals were kept in experimental rooms under closely controlled conditions. They were weighed daily. For acute vincristine toxicity in chicks, 48 hour old SPF chicks were used.
In contrast,of those chicks which received 200 mg/kg Cronassial® at the same time as the vincristine, only 2/5 had died at 24 hours but only 1 remained alive at 28 hours.
With 4 mg/kg vincristine, 4/5 chicks survived for 24 hours but only 1/5 survived for 28 hours. The chicks which additionally, received 200 mg/kg Cronassial® survived better with 3/5 surviving to 28 hours.

sarcoma S180 = assay: Antitumour activity against sarcoma S180 (tumour weight); assay type: in vivo, Male Swiss Schneider mice; conditions: S180, host SN; VCR 0.5 mg/kg ip days 1-6; in combination CRON 200 mg/kg ip days 1-6, 6hrs before VCR; CMC-controls 1.05
Description: (§2) Antitumour effects. Male Swiss Schneider mice of 27g body weight were used for the sarcoma S180 experiments: female C₅₇Bl mice of 20g body weight were used for the B16 melanoma experiments; male BDF₁ mice of 30g body weight were used for the L1210 leukaemia experiments; and C₅₇Bl mice of 20g body weight were used for the Lewis lung experiments.
Sarcoma S180. This tumour has been transplanted in the same strain of mouse for more than 10 years.
Transplantation was done by subcutaneous inoculation of 0.1 ml of a tumour mash made by finely mincing viable tumour tissue and passing it repeatedly through a 26 gauge needle into a sterile Petri dish. 0.1 ml of penicillin (20,000 m/ml) and streptomycin (20,000 m/ml) were added to the mash, as well as neomycin (5 mgs).

[2] = Acute vincristine toxicity in mice, with and without Cronassial; assay type: in vivo, Male Swiss Schneider mice
Protocol: as §1
(§3) Vincristine. A standard vial of 'Oncovin' (Eli Lilly Co.) containing 1 mg of vincristine was used. It was made up with the appropriate volume of diluting fluid to give the final concentration required to inject 0.1 ml/10 g body weight.
(§4) Cronassial®. A solution of this substance, which is a mixture of four gangliosides, was prepared by the addition of a volume of sterile distilled water sufficient to give a concentration of 200 mg/kg in a volume of 0.2 ml. This dose was given to mice of approximately 20g.

[3] = Chronic vincristine toxicity in mice, with and without Cronassial; assay type: in vivo, Male Swiss Schneider mice; conditions: for SURVIVORS No.at 30 d / survival at 720 h: chronic, host SN; for survival at 720 h: ip, 200 mg/kg, read-out: SURVIVAL % at 30 d
Protocol: as §1, §3, §4
Giving daily injections of vincristine of 0.8 mg/kg for 5 days was close to the LD₅₀. By giving 200 mg/kg Cronassial® at the same time as the vincristine, the number of survivors at 30 days was increased to 100% Almost identical results were obtained by using 1 mg/kg vincristine, even though the drugs were administered for only 4 days. However the total dosage of vincristine administered in the two experiments (4 mg/kg) was identical. Increasing the cumulative dose of vincristine from 4 to 5 mg/kg increased the mortality of the mice to 100%. With this overwhelming toxicity, there was little or no protection offered by the Cronassial®.

melanoma B16 = assay: Antitumour activity against melanoma B16 (tumour weight); assay type: in vivo, female C₅₇Bl mice; conditions: B16, host C5781; VCR 0.5 mg/kg ip days 1-4,7-11; in combination CRON 200 mg/kg, 6hrs before VCR; CMC-controls 2.33
Protocol: as §2
Melanoma B16. This tumour was prepared for inoculation in a manner identical to that used for the S180 sarcoma.

CC[C@]1(O)C[C@H]2CN(CCc3c([nH]c4ccccc34)[C@@](C(=O)OC)(c3cc4c(cc3OC)N(C=O)[C@H]3[C@@](O)(C(=O)OC)[C@H](OC(C)=O)[C@]5(CC)C=CCN6CC[C@]43[C@@H]65)C2)C1 [VCR, vincristine]
Mean survival time (leukaemia L1210): 7.8 days | toxicity ([1]; 48 hour old chicks, vincristine 2 mg/kg, in combination Cronassial also given): little toxicity | chicks with no acute neurotoxic signs during the first 4 hours ([1]; 48 hour old chicks, vincristine 6 mg/kg): 3/4 | dead at 24 hours ([1]; 48 hour old chicks, vincristine 6 mg/kg, in combination 200 mg/kg Cronassial at the same time): All the chicks were dead | SURVIVORS AT 24hrs ([1]; VCR 2.0 mg/kg ip day 1): 2/2 | SURVIVORS AT 28hrs ([1]; VCR 2.0 mg/kg ip day 1): 2/2 | SURVIVORS AT 52hrs ([1]; VCR 2.0 mg/kg ip day 1): 1/2 | SURVIVORS AT 24hrs ([1]; VCR 4.0 mg/kg ip day 1): 4/5 | SURVIVORS AT 28hrs ([1]; VCR 4.0 mg/kg ip day 1): 1/5 | SURVIVORS AT 52hrs ([1]; VCR 4.0 mg/kg ip day 1): 1/5 | SURVIVORS AT 24hrs ([1]; VCR 6.0 mg/kg ip day 1): 0/4 | TUMOUR WEIGHTS MEAN (sarcoma S180): 0.64 g | SURVIVORS No.at 30 d ([2]; acute, host SN, VCR 3.0 mg/kg iv day 1, in combination CRON 200 mg/kg ip day 1, 6hrs before VCR): 2/8 | survival at 720 h ([2]; mouse, in vivo, acute, host SN, VCR 3.0 mg/kg iv day 1, in combination CRON 200 mg/kg ip day 1, 6hrs before VCR, read-out: SURVIVAL % at 30 d): 25% | mortality at 720 h ([2]; mouse, in vivo, vincristine 3.0 mg/kg, one intravenous injection, Swiss Schneider mice, in combination 200 mg/kg Cronassial 6 hours before, read-out: deaths by day 30): 75% | SURVIVORS No.at 30 d ([3]; VCR 0.8 mg/kg ip days 1-5, in combination CRON 200 mg/kg ip days 1-5, 6hrs before VCR): 5/8 | SURVIVORS No.at 30 d ([3]; VCR 1.0 mg/kg ip days 1-4, in combination CRON 200 mg/kg ip days 1-4, 6hrs before VCR): 3/8 | SURVIVORS No.at 30 d ([3]; VCR 1.0 mg/kg ip days 1-5, in combination CRON 200 mg/kg ip days 1-5, 6hrs before VCR): 0/6 | survival at 720 h ([3]; mouse, in vivo, VCR 0.8 mg/kg ip days 1-5, in combination CRON 200 mg/kg ip days 1-5, 6hrs before VCR): 62.5% | survival at 720 h ([3]; mouse, in vivo, VCR 1.0 mg/kg ip days 1-4, in combination CRON 200 mg/kg ip days 1-4, 6hrs before VCR): 37.5% | survival at 720 h ([3]; mouse, in vivo, VCR 1.0 mg/kg ip days 1-5, in combination CRON 200 mg/kg ip days 1-5, 6hrs before VCR): 0% | mortality ([3]; mouse, in vivo, cumulative dose of vincristine 5 mg/kg, mice): 100% | LD50 ([3]; mouse, in vivo, daily injections of vincristine for 5 days, mice, read-out: LD₅₀): ~0.8 mg/kg | TUMOUR WEIGHTS MEAN (melanoma B16): 1.46 g
